# Earlier results as cited in patent US20100093849A1, “OXALIPLATIN PHARMACEUTICAL COMPOSITION WITH ALCOHOLIC SUGAR-BASED BUFFER” (priority 2007, published 2010).
# “And” between values parts separate entries of the source, which are not always exact repeats. Identical values can stand only once.
# Key:
# [1] = Merck Index
SMILES,solubility in water (at 37° C.),solubility in ether and ethanol (ether and ethanol),"highest concentrations of oxaliplatinum achieved (solvent of the same volumes of 1,2-propanediol and water (WO0115691))","second dissociation constant, pKa [1]"
"O=C1[O][Pt]2([NH][C@@H]3CCCC[C@H]3[NH]2)[O]C1=O [Oxaliplatinum, {trans-(1R,2R)-1,2-cyclohexane-diamine}-(oxalato)platinum(II) complex]",about 8 mg/ml,practically insoluble,14.01 mg/mL and 14.33 mg/mL,–
O=C(O)C(=O)O [Oxalic acid],–,–,–,4.28
